{
  "source": "patent US20200268720A1",
  "about": "“METHODS OF USE OF A CLASS IIA HDAC INHIBITOR” (GlaxoSmithKline LLC, priority 2016, published 2020)",
  "key": {"[1]": {"tested_on": "Human monocytes", "assay": "In vitro antigen presenting cell (APC) and T cell proliferation experiments", "format": "cell-based", "from_the_text": "Blood was collected from healthy donors according to the guidelines of the American Association of Blood Banks and under an IRB-approved informed consent form was purchased from Research Blood Components (Boston, Mass.). Human monocytes were isolated from buffy coat preparations via positive selection as per the manufacturer's instructions (StemCell Technologies, Catalog #18058). Monocytes were differentiated into antigen presenting cells in RPMI Medium 1640 supplemented with GLUTAMAX™ (GIBCO), fetal bovine serum (10% v/v), IL-4 (10 ng/ml), GM-CSF (50 ng/ml), penicillin (100 U/ml), and streptomycin (100 ug/ml) for 5 days in the presence of either 0.1% (v/v) DMSO or 300 nM TMP195. Cells were collected by washing and incubation with a solution of 5 mM EDTA in PBS (Ca2^+ and Mg2^+-free), prior to flow cytometric analysis of CD80 (Biolegend #305208) and CD86 (Biolegend #305418). Alternatively, harvested APCs were counted and co-cultured in culture medium (no DMSO or inhibitor present) with heterologous CD4^+ T cells (isolated from buffy coats via negative selection following manufacturer's instructions, StemCell Technologies, Catalog #15062) that had been labeled with CELLTRACE™ CFSE (ThermoFisher catalog #C34554) at a 10:1 T cell:APC ratio. T cell proliferation was stimulated by the addition of 200 pg/ml anti-CD3 (Biolegend Catalog #317326), and proliferation was quantified after 72 hours of co-culture by the dilution of CFSE using FlowJo software (version 9.4, Treestar, Inc.)."}, "[2]": {"tested_on": "MMTV-PyMT tumors", "assay": "Tumor cell proliferation and apoptosis (Ki67, cleaved Caspase 3 IHC, immunoblot)", "format": "in vivo, mouse", "conditions": "5 days of TMP195", "procedure": "Tumors were manually dissociated using a blade before being lysed in complete RIPA lysis buffer for 2 hours at 4° C. Complete RIPA is a combination of RIPA lysis buffer, a protease inhibitor, and Phenylmethylsulfonyl fluoride (PMSF). After incubation in RIPA, the lysates were centrifuged at 10,000 rcf for 10 minutes and the supernatant was collected for analysis. Protein concentration was measured using a Bicinchoninic acid (BCA) assay as per manufacturer's instructions. Equal protein concentrations were mixed into NuPAGE LDS sample buffer, beta mercaptoethanol (BME), and complete RIPA buffer before being heated for 10 mins at 90° C. to denature the protein. The gels were run on 15 wells 4-12% Bis-Tris Protein gels for 2 hours at 110 volts before being transferred onto a PVDF membrane. The blots were blocked in a 5% milk and PBST solution, and placed in primary antibody overnight. Blots were then incubated in secondary antibody for 1 hour before being developed with supersignal west PICO chemiluminescence substrate and FEMTO supersignal maximal sensitivity substrate. A Luminescent Image Analyzer LAS-4000 was used to develop blots. Primary antibodies purchased from Cell Signaling Technology were used: cleaved caspase 3 (D175), PARP (9542S) and Actin. Antibodies were diluted to a 1:1000 solution in 1% BSA, and sodium azide diluted to 1:500. […]"}, "[3]": {"tested_on": "mouse MMTV-PyMT breast tumor cell lines", "assay": "In vitro cell death assay (CellTiter-Glo), mouse lines", "format": "cell-based", "conditions": "0, 0.1, 1, 10 μM, 48 hours", "procedure": "The human breast cancer cell lines (BT20, MCF7, HCC202, T47D, MDA-MB-453 and MDA-MB-436) were obtained from ATCC. Prior to use, cell line authentication was performed by either STR profiling at Dana-Farber Cancer Institute or by Fluidigm based fingerprinting with a panel of SNPs at The Broad Institute. Cell lines were tested for mycoplasma with the MycoAlert PLUS Mycoplasma Detection Kit (Lonza LT07) according to manufacturer's instructions. Mouse breast tumor cell lines were established from 4 different MMTV-PyMT tumor bear mice. Mouse breast tumor cell line 7333 was implanted into wild-type littermates and once the tumor formed it was removed and used to generate the tumor cell line “MMTV”. All cells were plated at 1E4 cells/well in a 96 well plate. Cells were treated for 48 hours and CellTiter-Glo was used to assess cell viability."}, "[4]": {"tested_on": "MMTV-PyMT tumors", "assay": "Single agent efficacy on tumor burden in autochthonous MMTV-PyMT mice", "format": "in vivo, mouse"}, "[5]": {"tested_on": "MMTV-PyMT tumors", "assay": "Depletion experiments (anti-CD11b, anti-CSF1, anti-CD8, anti-CD4, anti-IFNγ)", "format": "in vivo, mouse", "procedure": "For CSF1 depletion, mice were injected IP with 1 mg of anti-CSF1 (BioXCell BE0204; clone 5A1) 1 day before treatment with vehicle or compound, and then with 0.5 mg every 5 days^3. For CD11b depletion mice were injected IP with 100 μg of anti-CD11b (clone M1/70; BioLegend 101231) one day before treatment with vehicle or compound, and then every other day.^34 For CD8 immune cell depletion, mice were injected IP with 1 mg anti-CD8 immunoglobulin (BioXCell BE0117; clone YTS169.4) or control IgG2b (BioXCell BE0090; clone LTF-2) on day 1 and then with 0.5 mg every 5 days for 2 week study. For 6-day experiment mice were dosed with: IgG1 (BioXcell BE0088; clone HRPN), α-CD8 (BioXcell BE0117; clone YTS169.4), α-CD4 (BioXcell BE0033-1; clone GK1.5) and α-INFγ (BioXcell BE0055; clone XMG1.2) with 1 mg on day 0 and 0.5 mg on day 4; except α-CD4 which was dosed at 400 μg on day 0 and 400 μg on day 4."}, "[6]": {"tested_on": "MMTV-PyMT tumors", "assay": "Combination with chemotherapy (Carboplatin, Paclitaxel) in MMTV-PyMT mice", "format": "in vivo, mouse"}, "[7]": {"tested_on": "MMTV-PyMT tumors", "assay": "Combination with PD-1 checkpoint blockade in MMTV-PyMT mice", "format": "in vivo, mouse", "conditions": "TMP195 50 mg/kg IP daily plus 250 μg anti-PD-1"}, "[8]": {"tested_on": "human monocytes, T or B cells", "conditions": "cited from earlier work"}, "[9]": {"conditions": "IL-4 and GM-CSF, 5 days, 300 nM TMP195 vs 0.1% DMSO"}, "[10]": {"conditions": "TMP195 50 mg/kg IP daily plus PTX 10 mg/kg IV"}},
  "note": "Entries after “also recorded” stand apart in the source; their conditions may differ.",
  "data": [
    {"smiles": "CC(C)(CNC(=O)c1cccc(-c2noc(C(F)(F)F)n2)c1)c1coc(-c2ccccc2)n1", "note": "[TMP195, N-(2-methyl-2-(2-phenyloxazol-4-yl)propyl)-3-(5-(trifluoromethyl)-1,2,4-oxadiazol-3-yl)benzamide]", "values": [
      {"measurement": "T cell co-stimulatory function of monocytes differentiated to antigen presenting cells", "setting": "[1]; [9]", "value": "promoted T cell co-stimulatory function"},
      {"measurement": "proportion of cells expressing the co-stimulatory molecule CD86", "setting": "[1]; [9]", "value": "increase"},
      {"measurement": "proliferation (Division Index) of CFSE-labeled naive CD4+ T cells co-cultured with differentiated monocytes", "setting": "[1]; monocytes differentiated in 300 nM TMP195 vs DMSO, 10:1 T cell:APC", "value": "higher degree of proliferation"},
      {"measurement": "cell death in the tumor (cleaved Caspase 3, PARP cleavage)", "setting": "[2]", "value": "increase in cell death"},
      {"measurement": "proliferating tumor cells (Ki67)", "setting": "[2]", "value": "significant decrease"},
      {"measurement": "cell viability, 6 mouse MMTV-PyMT cell lines", "setting": "[3]", "value": "not directly cytotoxic; also recorded: does not affect cell viability"},
      {"measurement": "rate of tumor growth", "setting": "[4]; total tumor burden 150-800 mm^3 at start, 13 days, 50 mg/kg TMP195 IP daily vs DMSO", "value": "significantly reduced"},
      {"measurement": "tumor burden, single agent", "setting": "[4]; total tumor burden 200-600 mm^3 at start, 50 mg/kg TMP195 IP daily vs vehicle", "value": "significant reduction"},
      {"measurement": "anti-tumor efficacy with myeloid cell depletion (anti-CD11b)", "setting": "[5]; TMP195 50 mg/kg IP daily plus anti-CD11b", "value": "abrogated the efficacy"},
      {"measurement": "anti-tumor efficacy with macrophage depletion (anti-CSF-1)", "setting": "[5]; TMP195 50 mg/kg IP daily plus anti-CSF-1", "value": "abrogated the efficacy"},
      {"measurement": "CD34 staining in tumor sections with IFNγ neutralization", "setting": "[5]; TMP195 plus anti-IFNγ antibody", "value": "failed to normalize CD34 staining"},
      {"measurement": "autochthonous tumor burden with CD4+ cell depletion", "setting": "[5]; TMP195 plus α-CD4, 6 days", "value": "reduced"},
      {"measurement": "single agent efficacy with CD8+ cell depletion", "setting": "[5]; TMP195 plus α-CD8", "value": "prevented the single agent efficacy"},
      {"measurement": "Granzyme B+ CD8+ T cells in tumors with IFNγ neutralization", "setting": "[5]; TMP195 plus α-IFNγ", "value": "disappearance"},
      {"measurement": "reduction of tumor burden with IFNγ neutralization", "setting": "[5]; TMP195 plus α-IFNγ, 6 days", "value": "loss of efficacy"},
      {"measurement": "tumor burden, combination with Carboplatin", "setting": "[6]; TMP195 50 mg/kg IP daily plus Carboplatin 50 mg/kg IV every 5 days", "value": "significant reduction in tumor burden compared to either monotherapy"},
      {"measurement": "durability of efficacy, combination of TMP195 and PTX", "setting": "[6]; [10]", "value": "at least 29 days"},
      {"measurement": "durability, combination of TMP195 plus PTX (figure legend)", "setting": "[6]; [10]", "value": "durable for at least one month"},
      {"measurement": "tumor burden, combination with Paclitaxel", "setting": "[6]; TMP195 50 mg/kg IP daily plus Paclitaxel 10 mg/kg IV every 5 days", "value": "significant reduction in tumor burden compared to either monotherapy"},
      {"measurement": "tumor burden, TMP195 added to the anti-PD-1 regimen", "setting": "[7]", "value": "significantly greater reduction in tumor burden than TMP195 alone"},
      {"measurement": "gene expression of monocytes and lymphocytes", "setting": "[8]; previous report", "value": "altered monocyte gene expression without affecting that of lymphocytes"},
      {"measurement": "direct cytotoxicity to human monocytes, T or B cells", "setting": "[8]; previously reported", "value": "not directly cytotoxic"}
    ]}
  ]
}
